Test system: NCI-H322M multicellular tumor spheroids, viability (% test/control)
Assay: Anticancer human tumor NCI-H322M cell line growth inhibition;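 for viability, T/C: spheroids exposed to compound for seven days before readout; 100% = DMSO vehicle control wells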
Settings: for IC50: curve of first compound; for viability, T/C: stronger effect = lower value; active = viability on the fitted dose curve at most 10% of control; inactive = the rest
Procedure, shortened: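 Complex spheroids of malignant cells with endothelial cells and mesenchymal stem cells; agents alone or combined, from near clinical Cmax (or 10 microM if unknown) down in half-log steps, 0.25% DMSO final.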

[2H]c1nc(C)nc([2H])c1-c1cc(NC[C@@H](C)c2cccc3c(C(=O)NC)ccnc23)ncn1 + Cn1nnc2c(C(N)=O)ncn2c1=O
> 10 µM: IC50 (second compound 1 µM) | IC50 (second compound 3.16 µM) | IC50 (second compound 10 µM) | IC50 (second compound 31.6 µM) | IC50 (second compound 100 µM)
inactive: viability, T/C (second compound 1 µM, first compound 0.0316 µM) 103% | viability, T/C (second compound 1 µM, first compound 0.1 µM) 101% | viability, T/C (second compound 1 µM, first compound 0.316 µM) 93% | viability, T/C (second compound 1 µM, first compound 1 µM) 116% | viability, T/C (second compound 1 µM, first compound 3.16 µM) 88.2% | viability, T/C (second compound 1 µM, first compound 10 µM) 84.4% | viability, T/C (second compound 3.16 µM, first compound 0.0316 µM) 105% | viability, T/C (second compound 3.16 µM, first compound 0.1 µM) 92.1% | viability, T/C (second compound 3.16 µM, first compound 0.316 µM) 94% | viability, T/C (second compound 3.16 µM, first compound 1 µM) 97.5% | viability, T/C (second compound 3.16 µM, first compound 3.16 µM) 100% | viability, T/C (second compound 3.16 µM, first compound 10 µM) 99.3% | viability, T/C (second compound 10 µM, first compound 0.0316 µM) 85.5% | viability, T/C (second compound 10 µM, first compound 0.1 µM) 80.7% | viability, T/C (second compound 10 µM, first compound 0.316 µM) 77.9% | viability, T/C (second compound 10 µM, first compound 1 µM) 99.2% | viability, T/C (second compound 10 µM, first compound 3.16 µM) 107% | viability, T/C (second compound 10 µM, first compound 10 µM) 116% | viability, T/C (second compound 31.6 µM, first compound 0.0316 µM) 81.8% | viability, T/C (second compound 31.6 µM, first compound 0.1 µM) 89.3% | viability, T/C (second compound 31.6 µM, first compound 0.316 µM) 89.9% | viability, T/C (second compound 31.6 µM, first compound 1 µM) 91.9% | viability, T/C (second compound 31.6 µM, first compound 3.16 µM) 102% | viability, T/C (second compound 31.6 µM, first compound 10 µM) 99.5% | viability, T/C (second compound 100 µM, first compound 0.0316 µM) 96.8% | viability, T/C (second compound 100 µM, first compound 0.1 µM) 88.9% | viability, T/C (second compound 100 µM, first compound 0.316 µM) 100% | viability, T/C (second compound 100 µM, first compound 1 µM) 92.5% | viability, T/C (second compound 100 µM, first compound 3.16 µM) 91.8% | viability, T/C (second compound 100 µM, first compound 10 µM) 95.3%

CC(C)n1c(=O)n(C)c2cnc3cc(F)c(-c4ccc(OCCCN5CCCCC5)nc4)cc3c21 + COc1cc2c(cc1O)CCNC21CSC2c3c(OC(C)=O)c(C)c4c(c3C(COC1=O)N1C(O)C3Cc5cc(C)c(OC)c(O)c5C(C21)N3C)OCO4
< 0.0316 µM: IC50 (second compound 0.003 µM)
0.276 µM: IC50 (second compound 0.000949 µM)
active: viability, T/C (second compound 0.003 µM, first compound 0.0316 µM) 5.32% | viability, T/C (second compound 0.003 µM, first compound 0.1 µM) 5.15% | viability, T/C (second compound 0.003 µM, first compound 0.316 µM) 3.05% | viability, T/C (second compound 0.003 µM, first compound 1 µM) 3.74% | viability, T/C (second compound 0.003 µM, first compound 3.16 µM) 6.35% | viability, T/C (second compound 0.003 µM, first compound 10 µM) 6.1%
inactive: viability, T/C (second compound 30 pM, first compound 0.0316 µM) 74.8% | viability, T/C (second compound 30 pM, first compound 0.1 µM) 73.8% | viability, T/C (second compound 30 pM, first compound 0.316 µM) 74.4% | viability, T/C (second compound 30 pM, first compound 1 µM) 62.8% | viability, T/C (second compound 30 pM, first compound 3.16 µM) 64.2% | viability, T/C (second compound 30 pM, first compound 10 µM) 54.7% | viability, T/C (second compound 94.9 pM, first compound 0.0316 µM) 77.3% | viability, T/C (second compound 94.9 pM, first compound 0.1 µM) 64.4% | viability, T/C (second compound 94.9 pM, first compound 0.316 µM) 85.3% | viability, T/C (second compound 94.9 pM, first compound 1 µM) 69% | viability, T/C (second compound 94.9 pM, first compound 3.16 µM) 61.4% | viability, T/C (second compound 94.9 pM, first compound 10 µM) 62.5% | viability, T/C (second compound 0.0003 µM, first compound 0.0316 µM) 58.5% | viability, T/C (second compound 0.0003 µM, first compound 0.1 µM) 59.9% | viability, T/C (second compound 0.0003 µM, first compound 0.316 µM) 58.3% | viability, T/C (second compound 0.0003 µM, first compound 1 µM) 72.1% | viability, T/C (second compound 0.0003 µM, first compound 3.16 µM) 68.5% | viability, T/C (second compound 0.0003 µM, first compound 10 µM) 60% | viability, T/C (second compound 0.000949 µM, first compound 0.0316 µM) 63.8% | viability, T/C (second compound 0.000949 µM, first compound 0.1 µM) 69.2% | viability, T/C (second compound 0.000949 µM, first compound 0.316 µM) 45.3% | viability, T/C (second compound 0.000949 µM, first compound 1 µM) 42.2% | viability, T/C (second compound 0.000949 µM, first compound 3.16 µM) 46.6% | viability, T/C (second compound 0.000949 µM, first compound 10 µM) 57.1%
> 10 µM: IC50 (second compound 30 pM) | IC50 (second compound 94.9 pM) | IC50 (second compound 0.0003 µM)

From PubChem BioAssay AID1845211 (Molecular Pharmacology Branch, DTP, NCI, 2023)
